Experimental data as given in ChEMBL document CHEMBL4346660, “Cryptolepine and aromathecin based mimics as potent G-quadruplex-binding, DNA-cleavage and anticancer agents: Design, synthesis and DNA targeting-induced apoptosis” (Eur J Med Chem, 2019).
Active and inactive are the calls of the source. The rule behind the calls is not given here.

What was measured:
MGC-803 [1] = assay: Antitumor activity against human MGC803 cells xenografted in BALB/C mouse assessed as tumor growth inhibition at 12 mg/kg, ip administered every other day for 2 weeks measured during compound dosing relative to control; assay type: functional; conditions: MGC-803, ip, 336 h
MGC-803 [2] = assay: Induction of DNA damage in human MGC803 cells assessed as increase in gamma-H2AX expression at 2.5 uM after 24 hrs by Western blot analysis; assay type: functional, cell-based
MGC-803 [3] = assay: Induction of apoptosis in human MGC803 cells assessed as early apoptotic cells at 2.5 uM incubated for 24 hrs by Annexin V-FITC/propidium iodide staining based flow cytometry (reference value: 0.97 +/- 0.10 %); assay type: functional
Calf thymus DNA [4] = assay: Inhibition of ethidium bromide binding to calf thymus DNA assessed as Stern-Volmer quenching constant by fluorescence spectra analysis; assay type: nucleic-acid assay; conditions: Bos taurus
MGC-803 [5] = assay: Antiproliferative activity against human MGC803 cells assessed as reduction in cell viability incubated for 48 hrs by MTT assay; assay type: functional, cell-based; conditions: MGC-803, 48 h
[6] = biological target: T1, DNA topoisomerase I (Bos taurus) (UniProt F1MN93); assay: Inhibition of calf thymus topoisomerase1-mediated relaxation of supercoiled pBR322 DNA at 5 uM measured after 30 mins by ethidium bromide staining based agarose gel electrophoresis
T1 sequence (whole entry): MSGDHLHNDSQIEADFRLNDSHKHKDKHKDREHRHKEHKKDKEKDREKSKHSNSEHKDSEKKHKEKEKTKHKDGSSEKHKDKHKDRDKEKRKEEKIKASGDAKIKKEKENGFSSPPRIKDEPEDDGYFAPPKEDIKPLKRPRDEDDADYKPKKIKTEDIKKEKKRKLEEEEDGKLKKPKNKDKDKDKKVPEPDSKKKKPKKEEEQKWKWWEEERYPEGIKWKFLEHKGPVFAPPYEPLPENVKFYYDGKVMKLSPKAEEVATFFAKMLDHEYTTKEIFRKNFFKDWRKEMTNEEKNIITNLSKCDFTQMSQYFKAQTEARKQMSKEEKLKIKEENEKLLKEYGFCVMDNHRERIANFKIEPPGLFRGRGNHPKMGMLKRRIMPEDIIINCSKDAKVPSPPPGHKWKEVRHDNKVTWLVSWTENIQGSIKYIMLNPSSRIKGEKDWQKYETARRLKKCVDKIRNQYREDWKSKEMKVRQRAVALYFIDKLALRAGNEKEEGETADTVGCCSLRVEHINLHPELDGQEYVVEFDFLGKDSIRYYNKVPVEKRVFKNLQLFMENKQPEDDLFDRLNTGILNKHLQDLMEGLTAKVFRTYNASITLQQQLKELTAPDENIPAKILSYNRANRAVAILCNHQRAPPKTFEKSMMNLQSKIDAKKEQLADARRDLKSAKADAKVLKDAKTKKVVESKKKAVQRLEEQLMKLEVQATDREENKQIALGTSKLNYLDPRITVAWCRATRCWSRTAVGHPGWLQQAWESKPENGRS

MGC-803 [7] = assay: Induction of apoptosis in human MGC803 cells assessed as increase in Apaf-1 expression at 0.5 to 2.5 uM after 24 hrs by Western blot analysis; assay type: functional, cell-based
Calf thymus DNA [8] = assay: Binding affinity to calf thymus DNA assessed as blue shift in maximum absorption at 10:1 compound to DNA ratio incubated for 5 mins by UV-Vis spectroscopy; assay type: nucleic-acid assay; conditions: Bos taurus
MGC-803 [9] = assay: Induction of apoptosis in human MGC803 cells assessed as increase in Bak levels at 0.5 to 2.5 uM after 24 hrs by Western blot analysis; assay type: functional, cell-based
MGC-803 [10] = assay: Induction of mitochondrial membrane depolarization in human MGC803 cells at 1 uM incubated for 24 hrs by JC-1 dye-based flow cytometric analysis (Rvb 3.37%); assay type: functional
MGC-803 [11] = assay: Induction of apoptosis in human MGC803 cells assessed as decrease in Bcl-xL expression at 0.5 to 2.5 uM after 24 hrs by Western blot analysis; assay type: functional, cell-based
MGC-803 [12] = assay: Induction of apoptosis in human MGC803 cells assessed as late apoptotic cells at 0.5 uM incubated for 24 hrs by Annexin V-FITC/propidium iodide staining based flow cytometry (reference value: 0.69 +/- 0.05 %); assay type: functional
Quadruplex DNA = assay: Binding affinity to human HTG21 G-quadruplex DNA assessed as Stern-Volmer quenching constant by fluorometric titration assay; assay type: nucleic-acid assay
MGC-803 [13] = assay: Induction of apoptosis in human MGC803 cells assessed as necrotic cells at 1 uM incubated for 24 hrs by Annexin V-FITC/propidium iodide staining based flow cytometry (reference value: 1.81 +/- 0.09 %); assay type: functional
MGC-803 [14] = assay: Cell cycle arrest in human MGC803 cells assessed as accumulation of cells at G2/M phase at 1 uM incubated for 48 hrs by propidium iodide staining-based flow cytometry (reference value: 13.07%); assay type: functional
MGC-803 [15] = assay: Induction of apoptosis in human MGC803 cells assessed as activated caspase-9 level at 2.5 uM after 24 hrs by FITC staining-based flow cytometric analysis (Rvb= 3.14%); assay type: functional
T-24 = assay: Antiproliferative activity against human T24 cells assessed as reduction in cell viability incubated for 48 hrs by MTT assay; assay type: functional, cell-based; conditions: T-24, 48 h
MGC-803 [16] = assay: Cell cycle arrest in human MGC803 cells assessed as down regulation of CDK2 expression at 0.5 to 2.5 uM incubated for 24 hrs by immunoblot analysis; assay type: functional, cell-based
MGC-803 [17] = assay: Induction of mitochondrial membrane depolarization in human MGC803 cells at 2.5 uM incubated for 24 hrs by JC-1 dye-based flow cytometric analysis (Rvb 3.37%); assay type: functional
MGC-803 [18] = assay: Induction of apoptosis in human MGC803 cells assessed as increase in Bim levels at 0.5 to 2.5 uM after 24 hrs by Western blot analysis; assay type: functional, cell-based
MGC-803 [19] = assay: Cell cycle arrest in human MGC803 cells assessed as accumulation of cells at S phase at 2.5 uM incubated for 48 hrs by propidium iodide staining based flow cytometry (reference value: 32.97%); assay type: functional
DNA = assay: Binding affinity to Escherichia coli supercoiled pBR322 DNA assessed as DNA intercalation at 0.5 to 10 uM after 3 hrs by ethidium bromide staining-based agarose gel electrophoresis analysis; assay type: nucleic-acid assay
MGC-803 [20] = assay: Antitumor activity against human MGC803 cells xenografted in BALB/C mouse assessed as tumor growth inhibition at 6 mg/kg, ip administered every other day for 2 weeks measured during compound dosing relative to control; assay type: functional; conditions: MGC-803, ip, 336 h, read-out: TGI
MGC-803 [21] = assay: Cell cycle arrest in human MGC803 cells assessed as accumulation of cells at G2/M phase at 0.5 uM incubated for 48 hrs by propidium iodide staining-based flow cytometry (reference value: 13.07%); assay type: functional
MGC-803 [22] = assay: Induction of apoptosis in human MGC803 cells assessed as increase in Bax levels at 0.5 to 2.5 uM after 24 hrs by Western blot analysis; assay type: functional, cell-based
Calf thymus DNA [23] = assay: Binding affinity to calf thymus DNA at 10 uM incubated for 5 mins by CD spectroscopy; assay type: nucleic-acid assay; conditions: Bos taurus
MGC-803 [24] = assay: Induction of apoptosis in human MGC803 cells assessed as viable cells at 2.5 uM incubated for 24 hrs by Annexin V-FITC/propidium iodide staining based flow cytometry (reference value: 96.53+/-2.11%); assay type: functional; conditions: MGC-803, 24 h, read-out: Activity

Q: `CN(C)CCCNc1c2c(nc3ccc(F)cc13)-c1ccccc1C2` was tested. Which inhibition in vivo at 12 mg/kg (MGC-803 [1]) did it give?
A: 53.2%

Q: And the Activity (MGC-803 [2])?
A: Active

Q: And the Activity (MGC-803 [3])?
A: 51.2%

Q: What about the Kq (Calf thymus DNA [4]) of the same compound?
A: 5.92 ×10⁴ No_unit

Q: What about the IC50 (MGC-803 [5]) of the same compound?
A: 0.97 µM

Q: What about the inhibition [6] of the same compound?
A: Active

Q: What about the Activity (MGC-803 [7]) of the same compound?
A: Active

Q: What about the Activity (Calf thymus DNA [8]) of the same compound?
A: 10 nm

Q: And the Activity (MGC-803 [9])?
A: Active

Q: What about the Activity (MGC-803 [10]) of the same compound?
A: 89.1%

Q: And the Activity (MGC-803 [11])?
A: Active

Q: What about the Activity (MGC-803 [12]) of the same compound?
A: 4.15%

Q: And the Kq (Quadruplex DNA)?
A: 1.56 ×10⁷ No_unit

Q: What about the Activity (MGC-803 [13]) of the same compound?
A: 4.69%

Q: What about the Activity (MGC-803 [14]) of the same compound?
A: 23.02%

Q: And the Activity (MGC-803 [15])?
A: 46.9%

Q: And the IC50 (T-24)?
A: 0.84 µM

Q: And the Activity (MGC-803 [16])?
A: Active

Q: What about the Activity (MGC-803 [17]) of the same compound?
A: 97.5%

Q: And the Activity (MGC-803 [18])?
A: Active

Q: What about the Activity (MGC-803 [19]) of the same compound?
A: 59.44%

Q: What about the Activity (DNA) of the same compound?
A: Active

Q: What about the inhibition in vivo at 6 mg/kg (MGC-803 [20]) of the same compound?
A: 31.2%

Q: And the Activity (MGC-803 [21])?
A: 3.76%

Q: What about the Activity (MGC-803 [22]) of the same compound?
A: Active

Q: And the Activity (Calf thymus DNA [23])?
A: Active

Q: What about the viability at 2.5 µM (MGC-803 [24]) of the same compound?
A: 37.3%
